Experimental data reported in BigSolDB 2.1.

O=C(O)/C=C/c1ccc(O)cc1
solubility (mole fraction)
Conditions | in acetone | in ethanol | in ethyl acetate | in isobutanol | in isopropanol | in methanol | in methyl acetate | in n-butanol | in n-propanol
293.15 K | 0.0383 | 0.0409 | 0.0113 | 0.0193 | 0.0294 | 0.036 | 0.0146 | 0.0323 | 0.0334
298.15 K | 0.0428 | 0.0456 | 0.0128 | 0.0226 | 0.0331 | 0.0395 | 0.0176 | 0.0371 | 0.0373
303.15 K | 0.0468 | 0.0507 | 0.0144 | 0.0256 | 0.0373 | 0.0438 | 0.0205 | 0.0432 | 0.0429
308.15 K | 0.0516 | 0.0552 | 0.0162 | 0.0295 | 0.0417 | 0.0484 | 0.0244 | 0.0503 | 0.0478
313.15 K | 0.0574 | 0.0614 | 0.0183 | 0.0332 | 0.0462 | 0.053 | 0.0292 | 0.0582 | 0.0525
318.15 K | 0.0619 | 0.0666 | 0.0205 | 0.0371 | 0.0511 | 0.0573 | 0.034 | 0.0647 | 0.0588
323.15 K | 0.0685 | 0.0725 | 0.0229 | 0.0425 | 0.0562 | 0.063 | 0.0394 | 0.0731 | 0.0652
328.15 K | 0.0756 | 0.0785 | 0.0256 | 0.0483 | 0.0617 | 0.0693 | 0.0457 | 0.0823 | 0.0714
333.15 K | 0.0825 | 0.0861 | 0.0286 | 0.0535 | 0.067 | 0.0757 | 0.0519 | 0.0924 | 0.0791
